According to PMC9103758 (International Journal of Molecular Sciences, 2022):
“And” between values parts separate entries of the source, which are not always exact repeats. Equal entries are not always repeated. Where two headings read alike, the source gives them in different places.

Experiments:
human CFTR = molecular target: T1, human CFTR (Homo sapiens, UniProt P13569); assay: Apical membrane current of CFTR in FRT cells expressing human CFTR; assay type: cell-based; conditions: 20 μM
T1 construct: expressed in transfected cells; host or cells: Fisher rat thyroid (FRT) cells
Source text: […]. (C) Summary of dose-response (mean ± S.E., n = 5). […]. (F) Summary of dose−response (mean ± S.E., n = 6).
Snapwell inserts containing ANO1(abc) or CFTR-expressing FRT cells were mounted in Ussing chambers (Physiological Instruments, San Diego, CA). The basolateral hemichamber was filled with buffer solution (in mM): 120 NaCl, 5 KCl, 1 MgCl2, 1 CaCl2, 10 D-glucose, 2.5 HEPES, and 25 NaHCO3 (pH 7.4). The apical hemichamber was filled with buffer solution (in mM): 60 NaCl, 60 Na-gluconate, 5 KCl, 1 MgCl2, 1 CaCl2, 10 D-glucose, 2.5 HEPES, and 25 NaHCO3 (pH 7.4). FRT cells were bathed for a 10 min stabilization period and gassed with 5% CO2 and 95% O2 at 37 °C. The apical membrane current was recorded with an EVC4000 Multi-Channel V/I Clamp (World Precision Instruments, Sarasota, FL, USA) and a PowerLab 4/35 (AD Instruments, Castle Hill, Australia).

human ANO2 = molecular target: T2, human ANO2 (Homo sapiens, UniProt Q9NQ90); assay: YFP fluorescence quenching assay in FRT cells expressing human ANO2; assay type: cell-based; conditions: 30 μM, ANO2 activated by 100 μM ATP
T2 construct: expressed in transfected cells; host or cells: Fisher rat thyroid (FRT) cells
T2 sequence (Q9NQ90 1-998): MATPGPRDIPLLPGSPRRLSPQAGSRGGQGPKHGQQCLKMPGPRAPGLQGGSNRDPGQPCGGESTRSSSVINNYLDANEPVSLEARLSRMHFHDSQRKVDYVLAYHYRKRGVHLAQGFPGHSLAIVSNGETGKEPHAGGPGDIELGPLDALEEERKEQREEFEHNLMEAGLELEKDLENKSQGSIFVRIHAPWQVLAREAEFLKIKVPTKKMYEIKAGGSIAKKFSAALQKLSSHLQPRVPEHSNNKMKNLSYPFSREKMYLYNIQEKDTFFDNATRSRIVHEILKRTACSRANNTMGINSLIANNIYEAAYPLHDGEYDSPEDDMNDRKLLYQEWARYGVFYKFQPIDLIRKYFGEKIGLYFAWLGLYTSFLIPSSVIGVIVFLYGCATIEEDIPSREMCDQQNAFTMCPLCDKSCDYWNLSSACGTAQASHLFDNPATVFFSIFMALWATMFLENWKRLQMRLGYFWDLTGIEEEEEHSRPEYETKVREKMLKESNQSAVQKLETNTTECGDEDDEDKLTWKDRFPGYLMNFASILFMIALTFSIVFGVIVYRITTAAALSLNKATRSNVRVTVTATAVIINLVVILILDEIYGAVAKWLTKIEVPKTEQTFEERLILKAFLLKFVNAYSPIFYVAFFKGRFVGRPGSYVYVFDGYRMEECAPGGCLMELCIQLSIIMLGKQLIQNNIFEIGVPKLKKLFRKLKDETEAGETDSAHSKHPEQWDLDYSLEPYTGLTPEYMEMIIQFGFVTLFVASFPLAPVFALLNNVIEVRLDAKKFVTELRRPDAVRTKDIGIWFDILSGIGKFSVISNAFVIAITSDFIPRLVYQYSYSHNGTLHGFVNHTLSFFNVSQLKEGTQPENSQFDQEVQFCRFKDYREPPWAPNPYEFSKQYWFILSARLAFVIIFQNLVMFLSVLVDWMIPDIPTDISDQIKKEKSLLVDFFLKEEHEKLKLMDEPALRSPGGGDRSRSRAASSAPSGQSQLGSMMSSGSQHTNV
Description: ANO2 activity was measured using YFP fluorescence quenching assay in FRT cells expressing human ANO2.
(D) Representative YFP fluorescence traces in FRT cells expressing human ANO2.

ANO1 = molecular target: T3, ANO1 (Homo sapiens, UniProt Q5XXA6, DEL476-501); assay: YFP fluorescence quenching assay for ANO1 activity in FRT-ANO1 cells; assay type: cell-based; conditions: ATP 100 μM, n = 4
T3 construct: expressed in transfected cells; host or cells: Fisher rat thyroid (FRT) cells; The YFP assay uses FRT-ANO1-YFP cells, which also carry the halide sensor
T3 sequence (Q5XXA6 with tags, fused parts or gaps isoform Q5XXA6-5 DEL539-564): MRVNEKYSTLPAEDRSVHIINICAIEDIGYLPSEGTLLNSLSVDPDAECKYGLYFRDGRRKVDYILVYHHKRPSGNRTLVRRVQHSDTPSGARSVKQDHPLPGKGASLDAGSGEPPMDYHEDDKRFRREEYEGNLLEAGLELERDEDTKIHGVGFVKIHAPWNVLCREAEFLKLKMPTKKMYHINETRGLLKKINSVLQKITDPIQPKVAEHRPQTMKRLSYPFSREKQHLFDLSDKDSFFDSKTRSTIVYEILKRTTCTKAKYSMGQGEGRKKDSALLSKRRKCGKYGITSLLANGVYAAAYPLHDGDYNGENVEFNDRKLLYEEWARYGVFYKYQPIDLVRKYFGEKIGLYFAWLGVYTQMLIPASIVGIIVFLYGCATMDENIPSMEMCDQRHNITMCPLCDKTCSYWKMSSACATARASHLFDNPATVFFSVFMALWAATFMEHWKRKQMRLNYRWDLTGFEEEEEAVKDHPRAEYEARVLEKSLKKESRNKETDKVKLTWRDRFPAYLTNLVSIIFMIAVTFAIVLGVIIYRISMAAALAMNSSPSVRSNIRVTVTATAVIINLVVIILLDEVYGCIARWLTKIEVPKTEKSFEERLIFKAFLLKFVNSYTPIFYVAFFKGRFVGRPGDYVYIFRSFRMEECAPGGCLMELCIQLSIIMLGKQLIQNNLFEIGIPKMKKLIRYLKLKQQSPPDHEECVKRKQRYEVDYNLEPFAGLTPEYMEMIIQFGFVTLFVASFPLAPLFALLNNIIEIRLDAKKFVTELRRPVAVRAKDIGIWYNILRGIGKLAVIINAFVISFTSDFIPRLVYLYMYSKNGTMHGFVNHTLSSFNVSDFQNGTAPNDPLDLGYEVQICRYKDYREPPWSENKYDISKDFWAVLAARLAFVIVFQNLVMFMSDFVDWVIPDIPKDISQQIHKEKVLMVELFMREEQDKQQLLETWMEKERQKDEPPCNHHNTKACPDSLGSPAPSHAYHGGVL
Description: Figure 2 Inhibitory effects of VI-101, VI-201 and VI-301 on VRAC and ANO1. (A–C) Representative YFP fluorescence traces for VRAC activity. LN215 cells were treated with the indicated concentrations of VI-101, VI-201 and VI-301 with hypotonic solution for 5 min. (D) Dose-response curve of VRAC inhibition (mean ± S.E., n = 4). (E–G) Representative YFP fluorescence traces for ANO1 activity. […]. (H) Dose-response curve of ANO1 inhibition (mean ± S.E., n = 4).
Human ANO1(abc) expressing Fisher rat thyroid (FRT) cells, ANO2 expressing FRT cells, and human CFTR expressing FRT cells were cultured as described in a previous study. LN215 cells were stably transfected with the halide sensor YFP-F46L/H148Q/I152 and NIH-3T3 cells cultured in DMEM were supplemented with 10% FBS, 2 mM L-glutamine, 100 units/mL penicillin, and 100 μg/mL streptomycin. HEK293T cells were stably transfected with the human Kv11.1 (hERG) and cultured in DMEM supplemented with 10% FBS, 2 mM L-glutamine, 100 units/mL penicillin, and 100 μg/mL streptomycin. PC3, HT29, and HeLa cells were stably transfected with the halide sensor YFP-F46L/H148Q/I152 and cultured in RPMI 1640 supplemented with 10% FBS, 2 mM L-glutamine, 100 units/mL penicillin, and 100 μg/mL streptomycin. […]

VRAC [1] = molecular target: T4, VRAC (Homo sapiens, UniProt Q8IWT6); assay: cell-based; conditions: VRAC IC50, YFP fluorescence quenching, LN215 cells, hypotonic solution 5 min, n = 4
T4 sequence (Q8IWT6 1-810): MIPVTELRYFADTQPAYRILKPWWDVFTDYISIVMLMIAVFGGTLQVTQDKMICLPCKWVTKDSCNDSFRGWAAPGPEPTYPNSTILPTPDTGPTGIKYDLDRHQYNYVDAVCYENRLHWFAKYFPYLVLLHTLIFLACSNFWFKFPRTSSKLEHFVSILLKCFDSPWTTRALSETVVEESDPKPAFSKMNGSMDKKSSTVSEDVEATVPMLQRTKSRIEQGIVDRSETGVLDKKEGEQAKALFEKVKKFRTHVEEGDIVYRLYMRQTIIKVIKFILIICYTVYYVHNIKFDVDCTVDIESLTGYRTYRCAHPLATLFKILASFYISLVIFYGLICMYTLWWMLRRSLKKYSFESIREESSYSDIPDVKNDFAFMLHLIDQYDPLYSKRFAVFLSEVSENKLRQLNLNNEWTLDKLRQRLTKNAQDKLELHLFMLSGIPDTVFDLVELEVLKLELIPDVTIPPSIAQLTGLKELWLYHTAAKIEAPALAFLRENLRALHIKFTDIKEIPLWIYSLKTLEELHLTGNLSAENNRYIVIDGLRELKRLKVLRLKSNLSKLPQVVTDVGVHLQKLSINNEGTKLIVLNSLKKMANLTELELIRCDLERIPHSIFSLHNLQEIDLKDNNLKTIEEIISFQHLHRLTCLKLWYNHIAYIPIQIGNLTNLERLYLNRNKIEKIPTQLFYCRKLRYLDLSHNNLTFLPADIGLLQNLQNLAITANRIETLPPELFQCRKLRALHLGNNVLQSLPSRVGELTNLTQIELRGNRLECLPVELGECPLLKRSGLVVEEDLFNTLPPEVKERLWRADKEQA

VRAC [2] = molecular target: T4, VRAC; conditions: read-out: VRAC IC50; YFP fluorescence quenching, LN215 cells, hypotonic solution 5 min, n = 4

T1 sequence (P13569 whole entry): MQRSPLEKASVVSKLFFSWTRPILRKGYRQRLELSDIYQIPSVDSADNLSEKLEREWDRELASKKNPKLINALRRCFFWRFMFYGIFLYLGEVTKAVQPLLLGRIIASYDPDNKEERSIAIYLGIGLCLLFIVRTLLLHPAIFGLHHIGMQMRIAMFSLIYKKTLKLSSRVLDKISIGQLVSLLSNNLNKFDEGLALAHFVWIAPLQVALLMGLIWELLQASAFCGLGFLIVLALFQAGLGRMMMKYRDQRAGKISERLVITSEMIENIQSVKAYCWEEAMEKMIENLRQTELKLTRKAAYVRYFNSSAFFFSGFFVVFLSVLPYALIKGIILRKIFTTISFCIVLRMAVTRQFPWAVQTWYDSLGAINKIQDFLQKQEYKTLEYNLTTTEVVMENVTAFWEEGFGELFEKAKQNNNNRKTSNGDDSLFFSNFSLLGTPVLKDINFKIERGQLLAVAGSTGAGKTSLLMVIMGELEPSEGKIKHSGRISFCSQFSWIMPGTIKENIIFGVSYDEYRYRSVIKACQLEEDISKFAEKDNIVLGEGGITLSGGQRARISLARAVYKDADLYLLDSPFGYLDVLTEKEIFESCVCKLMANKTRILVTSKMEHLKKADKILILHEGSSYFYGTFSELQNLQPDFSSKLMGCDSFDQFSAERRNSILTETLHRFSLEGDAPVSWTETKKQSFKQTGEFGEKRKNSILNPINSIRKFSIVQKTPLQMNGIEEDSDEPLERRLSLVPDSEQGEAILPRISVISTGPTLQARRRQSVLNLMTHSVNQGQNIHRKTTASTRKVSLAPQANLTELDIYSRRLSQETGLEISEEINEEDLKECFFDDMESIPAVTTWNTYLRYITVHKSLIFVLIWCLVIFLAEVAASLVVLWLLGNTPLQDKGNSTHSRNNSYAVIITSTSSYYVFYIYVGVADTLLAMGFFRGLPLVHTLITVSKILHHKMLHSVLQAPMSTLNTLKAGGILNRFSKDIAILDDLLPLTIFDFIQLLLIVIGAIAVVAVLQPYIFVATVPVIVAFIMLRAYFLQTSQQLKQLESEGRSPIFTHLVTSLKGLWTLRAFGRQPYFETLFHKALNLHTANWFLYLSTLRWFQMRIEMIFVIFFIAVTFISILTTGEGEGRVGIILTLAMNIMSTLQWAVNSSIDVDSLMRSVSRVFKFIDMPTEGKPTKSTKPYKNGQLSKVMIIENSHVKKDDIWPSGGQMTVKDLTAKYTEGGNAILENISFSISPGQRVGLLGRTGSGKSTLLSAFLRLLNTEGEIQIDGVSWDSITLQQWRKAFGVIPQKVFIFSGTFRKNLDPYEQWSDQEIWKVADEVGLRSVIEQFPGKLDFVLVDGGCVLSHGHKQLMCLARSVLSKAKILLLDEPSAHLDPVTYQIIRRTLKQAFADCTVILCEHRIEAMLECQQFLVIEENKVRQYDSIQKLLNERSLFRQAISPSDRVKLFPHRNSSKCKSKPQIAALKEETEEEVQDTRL

Structure (SMILES)	block of CFTR (human CFTR)	block of ANO2 (human ANO2)	IC50 (ANO1) [µM]	IC50 (VRAC [1])	IC50 (VRAC [2]) [µM]
O=C(O)c1ccc(/C=C2\SC(=S)N(c3cccc(C(F)(F)F)c3)C2=O)cc1 [CFTRinh−172]	completely blocked	–	–	–	–
CCc1c(C)nc(SCC(=O)Nc2nc(-c3ccc(OC)cc3)cs2)[nH]c1=O [T16Ainh-A01, reference compound]	–	completely blocked	–	–	–
O=c1oc2ccccc2c(O)c1C(c1cc([N+](=O)[O-])ccc1Cl)c1c(O)c2ccccc2oc1=O [VI-101]	–	–	3.2	3.3 µM	–
O=c1oc2ccccc2c(O)c1C(c1ccc(Cl)c([N+](=O)[O-])c1)c1c(O)c2ccccc2oc1=O [VI-102]	–	–	3	0.8 µM	–
O=c1oc2ccccc2c(O)c1C(c1cc([N+](=O)[O-])c(Cl)cc1Cl)c1c(O)c2ccccc2oc1=O [VI-103]	–	–	3.2	3.3 µM	–
O=c1oc2ccccc2c(O)c1C(c1cc([N+](=O)[O-])cc([N+](=O)[O-])c1Cl)c1c(O)c2ccccc2oc1=O [VI-104]	–	–	37.9	30 µM	–
O=c1oc2ccccc2c(O)c1C(c1cccc([N+](=O)[O-])c1)c1c(O)c2ccccc2oc1=O [VI-105]	–	–	3.8	4.9 µM	–
CN(C)c1ccc(C(c2c(O)c3ccccc3oc2=O)c2c(O)c3ccccc3oc2=O)cc1[N+](=O)[O-] [VI-106]	–	–	3.6	1.3 µM	–
O=c1oc2ccccc2c(O)c1C(c1ccccc1)c1c(O)c2ccccc2oc1=O [VI-107]	–	–	95.2	–	103
O=c1oc2ccccc2c(O)c1C(c1ccncc1)c1c(O)c2ccccc2oc1=O [VI-108]	–	–	34.7	17 µM	–
O=c1oc2ccccc2c(O)c1C(c1ccccc1Cl)c1c(O)c2ccccc2oc1=O [VI-109]	–	–	2	0.9 µM	–
O=c1oc2ccccc2c(O)c1C(c1ccccc1F)c1c(O)c2ccccc2oc1=O [VI-110]	–	–	4.8	0.58 µM and 0.6 µM	–
CCN(CC)c1ccc(C(c2c(O)c3ccccc3oc2=O)c2c(O)c3ccccc3oc2=O)cc1 [VI-111]	–	–	3.2	2.9 µM	–
CC(C)Oc1ccc(C(c2c(O)c3ccccc3oc2=O)c2c(O)c3ccccc3oc2=O)cc1 [VI-112]	–	–	0.8	1.4 µM	–
O=c1oc2ccccc2c(O)c1C(c1ccc2c(c1)OCO2)c1c(O)c2ccccc2oc1=O [VI-113]	–	–	3.9	1.9 µM	–
O=c1oc2ccccc2c(O)c1C(c1cc2c(cc1[N+](=O)[O-])OCO2)c1c(O)c2ccccc2oc1=O [VI-114]	–	–	20.3	10.6 µM	–
O=c1oc2ccccc2c(O)c1C(c1ccc(O)c(O)c1)c1c(O)c2ccccc2oc1=O [VI-115]	–	–	61.6	47.9 µM	–
CCOc1cc(C(c2c(O)c3ccccc3oc2=O)c2c(O)c3ccccc3oc2=O)ccc1O [VI-117]	–	–	14.2	6.8 µM	–
COc1ccc(C(c2c(O)c3ccccc3oc2=O)c2c(O)c3ccccc3oc2=O)cc1OC [VI-118]	–	–	14.2	4 µM	–
CCOc1ccc(C(c2c(O)c3ccccc3oc2=O)c2c(O)c3ccccc3oc2=O)cc1OC [VI-119]	–	–	4.9	12 µM	–
COc1cc(OC)cc(C(c2c(O)c3ccccc3oc2=O)c2c(O)c3ccccc3oc2=O)c1 [VI-120]	–	–	3.9	9.3 µM	–
